Experimental findings from article PMC3492761 (Journal of medicinal chemistry, 2012) are described below.

In series [1] the test system is A/Brisbane/10/2007 (H3N2). Conditions: read-out: EC50, cytopathic effect inhibition.
For series [2], the system named is A/WSN/33 (H1N1) influenza virus. The settings on record: mouse, in vivo, po.
The conditions of series [3]: male (rat, dog), human, microsomes, 1 h.

Turning to `CCC(CC)O[C@@H]1C=C(P(=O)(O)O)C[C@H](N)[C@H]1NC(C)=O` [3a, tamiphosphor], the 50% effective concentration (EC50) in series [1] is greater than 10 µM.
As for `CCOP(=O)(OCC)C1=C[C@@H](OC(CC)CC)[C@H](NC(C)=O)[C@@H](N)C1` [3b, tamiphosphor diethyl ester], the “protection of infected mice” value in series [2] is “No significant protection”.
For `CCOP(=O)(O)C1=C[C@@H](OC(CC)CC)[C@H](NC(C)=O)[C@@H](N)C1` [3c, tamiphosphor monoethyl ester], in series [1], the EC50 is greater than 10 µM.
Regarding `CCC(CC)O[C@@H]1C=C(P(=O)(O)O)C[C@H](NC(=N)N)[C@H]1NC(C)=O` [4a, guanidino-tamiphosphor], the half-maximal effective concentration (EC50) in series [1] is greater than 10 µM.
For `CCOP(=O)(O)C1=C[C@@H](OC(CC)CC)[C@H](NC(C)=O)[C@@H](NC(=N)N)C1` [4c, guanidino-tamiphosphor monoethyl ester], the EC50 in series [1] was greater than 10 µM.
Turning to `Cc1ncc2n1-c1ccc(Cl)cc1C(c1ccccc1F)=NC2` [midazolam], the metabolized in series [3] is 65–100%.
The same measure, in the same setting: the result for `C[C@]12CC[C@H]3[C@@H](CCC4=CC(=O)CC[C@@]43C)[C@@H]1CC[C@@H]2O` [testosterone] reads 65–100%.
